The values below come from patent publication US8017786B2, “Substituted β-phenyl-α-hydroxy-propanoic acid, synthesis method and use thereof” (Northwest University, priority 2006, dated 2011).

Type in all cases: in vivo, rat
The subject of one experiment is caspase-3. Put plainly: Immunohistochemistry protein expression in I/R myocardial tissue: caspase-3. The settings on record: 1 mL/kg, 5 days; ischemia 30 min, reperfusion 2 h. The procedure:
(§1) 52 SD rats having a body weight of 220±20 g were randomly divided into model control group, salviannic acid injection group (in 1 mL/kg), and group of bornyl β-(3,4-dihydroxylphenyl)-α-hydroxylpropionate ester at a small, middle and large dose (ip 5, 15, 35 mg/kg). The rats of the normal group and the model control group were ip administered with equal-volume of physiologic saline. The rats of all groups were administered for consecutive 5 days. When the rats were administered for the last time, they were simultaneously anesthetized with 1.5% pentobarbital sodium (ip 45 mg/kg), then a catheter was inserted into the right carotid artery, and connected via a transducer to an eight-channeled physiological recorder. Tracheal cannula was performed, and the ventilation rate was maintained at 60 times/min. The chest was opened, a 6/0 suture was used to form a loop at a site 1˜2 mm from the root of the anterior descending coronary artery, and a plastic pipe was introduced through the loop, then the loop was tightened up. The change of electrocardiogram was observed. An increase or decrease of ST indicated the success of ligation. The color of the myocardial tissue below the ligation suture became darker. 30 minutes later, the plastic pipe was pulled out to allow coronary artery blood flowing again and cause hyperemia of local tissue during reperfusion. For the groups subjected to ischemia for 30 min and reperfusion for 30 min, the myocardial infarction areas were recorded before the test, after ischemia for 1 min and 30 min, and after reperfusion for 30 min; for the groups subjected to ischemia for 30 min and reperfusion for 2 h, cardiac tissue samples were taken and fixed using 10% formalin, embedded with paraffin, serially sliced into sections with a thickness of 4 μm, and separately subjected to immunohistochemistry tests; the rats of the sham operation group were subjected only to the introduction of suture but their coronary arteries were not ligated.
(§2) Standard immunohistochemistry ABC and SP methods were employed for staining. Bax: anti-rabbit polyclonal antibody (Santa CruzBio. Inc.) at a dilution of 1:200; […]: anti-rabbit polyclonal antibody (TBD Tianjin Biotechnological Center). At a dilution of […]; caspase-3: anti-rabbit polyclonal antibody (Normarkers Fromont, Calif.), at a dilution of 1:200; MMP-2: anti-murine monoclonal antibody (NormarkersFromont, Calif.) at a dilution of 1:200; PPARγ: anti-caprine polyclonal antibody (Santa Cruz Bio. Inc.), at a dilution of 1:500. The specific procedures were performed in accordance with the instructions of the ABC and SP kits, DAB was used for color development, and neutral resin was used for mounting. PBS was used instead of the first antibody as a negative control. Cells with positive expression of the test polypeptides were of brown-yellow color, with MMP-2 protein being present in acytoplasm, Bcl-2 expressed in nuclear membrane and cytoplasm, Bax mainly in cytoplasm and partially in nucleus, and caspase-3 mainly in nucleus and partially in cytoplasm. CMIAS image analysis system was used for random selection of fields of slices and automatic selection of sites for analysis, and statistic analysis was performed by using mean optical density values or integral optical density values of the obtained myocardial tissue slices.

Another experiment relates to MMP-2. Description: Immunohistochemistry protein expression in I/R myocardial tissue: MMP-2. The settings on record: 1 mL/kg, 5 days; ischemia 30 min, reperfusion 2 h. The method, then: as §1, §2
The subject of another experiment is PPARγ. Description: Immunohistochemistry protein expression in I/R myocardial tissue: PPARγ. The settings on record: 1 mL/kg, 5 days; ischemia 30 min, reperfusion 2 h. The method, then: as §1
Standard immunohistochemistry ABC and SP methods were employed for staining. Bax: anti-rabbit polyclonal antibody (Santa CruzBio. Inc.) at a dilution of 1:200; […]: anti-rabbit polyclonal antibody (TBD Tianjin Biotechnological Center). At a dilution of […]; caspase-3: anti-rabbit polyclonal antibody (Normarkers Fromont, Calif.), at a dilution of 1:200; MMP-2: anti-murine monoclonal antibody (NormarkersFromont, Calif.) at a dilution of 1:200; PPARγ: anti-caprine polyclonal antibody (Santa Cruz Bio. Inc.), at a dilution of 1:500. The specific procedures were performed in accordance with the instructions of the ABC and SP kits, DAB was used for color development, and neutral resin was used for mounting. PBS was used instead of the first antibody as a negative control. […]

The test system of another experiment is Bax. Put plainly: Immunohistochemistry protein expression in I/R myocardial tissue: Bax. The settings on record: 1 mL/kg, 5 days; ischemia 30 min, reperfusion 2 h. The procedure:
as §1, §2

Experiment [1] has as its system rats with cardiac ischemia reperfusion (I/R) injury. Description: Myocardial infarction areas caused by cardiac muscle I/R. The settings on record: 1 mL/kg, 5 days; ischemia 30 min, reperfusion 30 min. The method, then: as §1
After the rats were subjected to ischemia and reperfusion for 30 minutes, their anterior descending coronaries were ligated again, then they were sacrificed, their hearts were removed promptly, and 0.5 mL of 1% evans blue was injected into heart chambers via aorta to distinguish the ischemic regions and the non-ischemic regions. After the heart atrium and right ventricle were cut-off, the heart was refrigerated at −20° C. for 30 min, then placed in a tailor-made slice groove, and cut along the long axis to form 2 mm slices. The slices were immersed in 1% TTC phosphoric acid buffer solution (pH7.4), and incubated at 37° C. for 30 min to distinguish risky regions and necrotic regions. Then the slices were fixed with 10% formaldehyde for 24 h to enhance staining color for contrast photography. After the above treatment, the myocardial tissue was divided into: normal myocardia in blue, ischemic myocardia in light red, and necrotic myocardion in gray. A computer image analysis software was used to calculate the percentage of the area of the infarct myocardial region (nec) based on the area of the risky myocardial region (aar, i.e., ischemic myocardia, including ischemic infarct region and ischemic non-infarct region) (nec/aar), and the percentage of the area of the infarct myocardial region based on the whole area of the myocardia (nec/lv) to indicate the degree of infarct, as well as the percentage of the area of the risky myocardia based on the area of the left ventricle (aar/lv).

A further experiment deals with Bcl-2. Description: Immunohistochemistry protein expression in I/R myocardial tissue: Bcl-2. The settings on record: 1 mL/kg, 5 days; ischemia 30 min, reperfusion 2 h. The procedure: as §1, §2
In experiment [2] the test system is rats with middle cerebral artery occlusion. Put plainly: Cerebral microcirculatory blood flow in rats with middle cerebral artery occlusion. The settings on record: 1 mL/kg ip. The procedure:
60 SD rats with a body weight of 220±20 g were randomly divided into normal control group, model control group, salvianic acid injection group (ip. 1 mL/kg), and group of bornyl β-(3,4-dihydroxylphenyl)-α-hydroxylpropionate ester at a small, middle and large dose respectively (ip. 5, 15, and 35 mg/kg). The rats of normal group and model group were administered with equal-volume of physiologic saline by ip. The rats were anesthetized by intraperitoneal injection of 1% pentobarbital sodium at an amount of 40 mg/kg, then placed at supine position, head fixed, and cut skin along cervical middle line. Trachea cannula, was inserted into the rats and they were allowed to spontaneous respire. Right common jugular vein and common carotid artery were isolated and a suture was introduced for later use. Animals were fixed on a rat stereotaxic apparatus, a cranial window with a size of 6×8 mm was opened at the right temple with a dental drill, after hemostasis, cerebral dura mater was cut open with scissors to expose cerebral pia mater. The window was covered and sealed with glass and dental cement, and the laser probe of a laser-doppler microcirculatory blood flow meter was fixed on the cranial window. Then the animals were fixed at lateral position, the right common carotid artery was lifted, ligated at the proximal part and carefully cut with scissors, a nylon suture having a diameter of about 0.3 mm was introduced into the artery. The distance between the artery cut and the paropia of the rats was marked before the suture was introduced. […] When the suture arrived at middle cerebral artery, an abrupt decrease of the microcirculatory blood flow would be observed. After the observation of a decrease in the microcirculatory blood flow, the suture was further penetrated by about 1 mm, and the distal end of the cut and the suture in the artery were ligated securely. Spare suture was cut-off. After the end of the test, it was checked whether the nylon suture blocked the initiation site of the middle cerebral artery, and the data of any animal whose artery was not blocked were cancelled. The animals of the control group were not treated. After the cranial window was prepared, the probe of J I2200 type laser-doppler microcirculatory blood flow meter was fixed at the cranial window, and the probe was maintained without displacement and rotation during the whole test. The microcirculatory blood flows before ligation and 5, 15, 30, 45 and 60 min after ligation were recorded, and the data of the animals in the drug-treatment groups were recorded at the same time points. The mean microcirculatory blood flow observed within 1 min at each time point was designated as the microcirculatory blood flow of the respective time point.

On to `O=C(O)C(O)Cc1ccc(O)c(O)c1` (stereo not drawn) [Salvianic acid, β-(3,4-dihydroxyphenyl)-α-hydroxyl-propionic acid, reference compound], for which the “Caspase-3 protein expression, OD value” with caspase-3 is 0.21 ± 0.12. In addition, in the experiment with MMP-2, the “MMP-2 protein expression, OD value” is 0.12 ± 0.05. Further, the “PPARγ protein expression, OD value” with PPARγ was 0.34 ± 0.08. For the same compound, the “Bax protein expression, OD value” in the experiment with Bax is 0.08 ± 0.02. In experiment [1], this compound yielded an aar/lv of 50.21 ± 7.10 %. The compound also showed a nec/aar in experiment [1] of 49.87 ± 7.83 %. Also, the nec/lv in experiment [1] was 41.41 ± 5.49 %. Moreover, the “Bcl-2 protein expression, OD value” with Bcl-2 turned out to be 0.18 ± 0.04. The Microcirculatory blood flow in experiment [2] (5 min after ligation) amounted to 10.8 ± 3.6 mL; in experiment [2] (15 min after ligation) it was 20.1 ± 6.9 mL; in experiment [2] (30 min after ligation) it was 31.2 ± 9.5 mL; in experiment [2] (45 min after ligation), 33.0 ± 6.8 mL; in experiment [2] (60 min after ligation), 29.4 ± 6.9 mL.
